# According to patent US20230286973A1, “PROTEIN SECRETION INHIBITORS” (KEZAR LIFE SCIENCES, priority 2020, published 2023):
# “And” between values parts separate entries of the source, which are not always exact repeats. Equal values may be shown once.
# Experiments:
# [1] = system: multiple myeloma cell line U266B1; assay: U266 Cell Viability Assay; format: cell-based, human; conditions: Homo sapiens, U-266, 48 h, U266B1 cells, Celltiter-Glo
# Procedure, shortened: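 Steps: culture in RPMI 1640 plus 10% FBS and 2 mM glutamine; plate and add compound dilutions; incubate 48 hours at 37° C., 5% CO2; add CellTiter-Glo and quantify luciferase signal.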
# [2] = Liver Microsome Stability Assay (monkey); conditions: monkey liver microsomes, with NADPH, 1.0 uM compound
# Method: (§1) Stability of a compound was assessed in the presence of liver microsomes from various sources—mouse, rat, monkey and human liver microsomes. 1.0 uM compound, 0.4% DMSO in 0.1 M Potassium Phosphate with 1.0 mg/mL liver microsomes, were incubated at 37° C. with or without 1 mM NADPH. The samples were quenched at 0, and 30 minutes.
# [3] = system: PD1-ss+10aa/Gaussia Luciferase; assay: Dox-Induced PD1-ss-Gluc Assay; format: cell-based; conditions: 24 hr Dox induction; 293FRT/TO cells; read-out: 24 hr Dox Inducible PD1ssGluc 293FRT/TO: Mean IC50
# Procedure, shortened: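 Compounds were added in DMSO/media with doxycycline and incubated at 37 °C, 5% CO2, on 293 T-REx cells plated one day earlier. These cells stably express, under tetracycline-regulated control, a Gaussia luciferase fused to the PD1 signal peptide plus 10 residues. Structures drawn without stereochemistry were tested as stereoisomer mixtures.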
# [4] = Liver Microsome Stability Assay (rat); conditions: rat liver microsomes, with NADPH, 1.0 uM compound
# Method: as §1
# [5] = system: IL-2-FL/Gaussia Luciferase; assay: Dox Induced IL2-FL-Gluc Assay; format: cell-based; conditions: for IC50: 24 hr Dox induction, 293FRT/TO cells, read-out: 24 hr Dox Inducible IL2FLGluc 293FRT/TO: Mean IC50; for 24 hr Dox Inducible IL2FLGluc 293FRT/TO: IL2/PD1: ratio of IL2FLGluc IC50 to PD1ssGluc IC50
# Procedure, shortened: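 Cells are plated one day ahead, then receive compound dilutions in DMSO/media with doxycycline and incubate at 37° C, 5% CO2. They are Flp-In 293 T-REx cells expressing a full-length IL-2 (amino acids 1-153)–Gaussia luciferase fusion under T-REx control.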
# [6] = Liver Microsome Stability Assay (mouse); conditions: mouse liver microsomes, with NADPH, 1.0 uM compound
# Method: as §1
# [7] = system: multiple myeloma cell line NCI-H929; assay: H929 Cell Viability Assay; format: cell-based, human; conditions: Homo sapiens, NCI-H929, 48 h, NCI-H929 cells, Celltiter-Glo
# Procedure, shortened: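 Luminescent ATP detection (CellTiter-Glo) after 48 hours of compound exposure measures viability. Cells were plated in RPMI 1640 containing 10% fetal bovine serum and kept at 37° C under 5% CO2.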
# [8] = Liver Microsome Stability Assay (human); conditions: human liver microsomes, with NADPH, 1.0 uM compound
# Method: as §1
# [9] = system: TNFα-FL/Gaussia Luciferase; assay: Dox Induced TNFα-FL-Gluc Assay; format: cell-based; conditions: for IC50: 24 hr Dox induction, 293FRT/TO cells, read-out: 24 hr Dox Inducible TNFaFLGluc 293FRT/TO: Mean IC50; for 24 hr Dox Inducible TNFaFLGluc 293FRT/TO: TNF/PD1: ratio of TNFaFLGluc IC50 to PD1ssGluc IC50
# Procedure, shortened: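 Stereoisomer mixtures were tested where stereochemistry is not drawn. Induction used doxycycline added together with compound dilutions in DMSO/media to Flp-In 293 T-REx cells carrying a T-REx-regulated TNFα (aa 1-233)-Gaussia luciferase construct, then incubated at 37 °C, 5% CO2.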
# [10] = system: HER3-ss+4aa/Gaussia Luciferase; assay: Dox-Induced Her3-ss-Gluc Assay; format: cell-based; conditions: 24 hr Dox induction; 293FRT/TO cells; read-out: 24 hr Dox Inducible Her3(ss + 4)Gluc 293FRT/TO: Mean IC50
# Procedure, shortened: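 Cells were seeded a day ahead, then given compound diluted in DMSO/media with doxycycline to induce expression of the HER3 signal sequence (+4 aa)–Gaussia luciferase fusion. Incubation was at 37° C., 5% CO2, in a stable Flp-In 293 T-REx line.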
EC50 [1],Liver Microsome Stability (Multiple Species): Monkey - % Remaining after 30 min w/NADPH [2],IC50 [3],Liver Microsome Stability (Multiple Species): Rat - % Remaining after 30 min w/NADPH [4],IC50 [5],Liver Microsome Stability (Multiple Species): Mouse - % Remaining after 30 min w/NADPH [6],EC50 [7],Liver Microsome Stability (Multiple Species): Human - % Remaining after 30 min w/NADPH [8],IC50 [9],IC50 [10],SMILES,24 hr Dox Inducible IL2FLGluc 293FRT/TO: IL2/PD1 [5],24 hr Dox Inducible TNFaFLGluc 293FRT/TO: TNF/PD1 [9]
> 25 µM,0.48%,0.486 µM,3.87%,> 25 µM,1.62%,> 25 µM,0.81%,> 25 µM,> 25 µM,"CC(C)c1cccc2nc(/C=C/c3csc(NC(=O)c4cccn4Cc4ccnc(F)c4)n3)cn12 [Compound B73, (E)-1-((2-fluoropyridin-4-yl)methyl)-N-(4-(2-(5-isopropylimidazo[1,2-a]pyridin-2-yl)vinyl)thiazol-2-yl)-1H-pyrrole-2-carboxamide]",>51,>51.4
5.49 µM,0.13%,0.418 µM,0.43%,5.36 µM,3.41%,5.29 µM,0.44%,9.97 µM,4.08 µM,"CC(C)n1ccc(/C=C/c2csc(NC(=O)c3cccn3Cc3ccnc(F)c3)n2)n1 [Compound B74, (E)-1-((2-fluoropyridin-4-yl)methyl)-N-(4-(2-(1-isopropyl-1H-pyrazol-3-yl)vinyl)thiazol-2-yl)-1H-pyrrole-2-carboxamide]",13,23.9
6.75 µM,0.23%,0.446 µM,0.27%,17.1 µM,0.94%,7.16 µM,2.26%,10.3 µM,5.67 µM,"CC(C)n1ccc(/C=C/c2csc(NC(=O)c3cccn3Cc3ccncc3)n2)n1 [Compound B75, (E)-N-(4-(2-(1-isopropyl-1H-pyrazol-3-yl)vinyl)thiazol-2-yl)-1-(pyridin-4-ylmethyl)-1H-pyrrole-2-carboxamide]",38,23
> 25 µM,0.25%,0.419 µM,0.52%,> 25 µM,0.37%,> 25 µM,0.76%,> 25 µM,1.6 µM,"CC(C)c1cccc2nc(/C=C/c3csc(NC(=O)c4cccn4Cc4ccncc4)n3)cn12 [Compound B76, (E)-N-(4-(2-(5-isopropylimidazo[1,2-a]pyridin-2-yl)vinyl)thiazol-2-yl)-1-(pyridin-4-ylmethyl)-1H-pyrrole-2-carboxamide]",>60,>59.6
> 25 µM,0.59%,0.491 µM,1.67%,> 25 µM,2.21%,> 25 µM,1.11%,> 25 µM,11.5 µM,"Cc1cccc2nc(/C=C/c3csc(NC(=O)c4cccn4Cc4ccncc4)n3)cn12 [Compound B77, (E)-N-(4-(2-(5-methylimidazo[1,2-a]pyridin-2-yl)vinyl)thiazol-2-yl)-1-(pyridin-4-ylmethyl)-1H-pyrrole-2-carboxamide]",>51,>50.9
> 25 µM,0.06%,0.228 µM,9.66%,> 25 µM,11.7%,16.9 µM,0.58%,> 25 µM,15.6 µM,"CC(C)c1c(/C=C/c2csc(NC(=O)c3cccn3Cc3ccnc(F)c3)n2)ncn1C [Compound B81, (E)-1-((2-fluoropyridin-4-yl)methyl)-N-(4-(2-(5-isopropyl-1-methyl-1H-imidazol-4-yl)vinyl)thiazol-2-yl)-1H-pyrrole-2-carboxamide]",>110,>109
15.3 µM,0.25% and 0.24%,0.32 µM,6.87% and 5.01%,3.23 µM,11.1% and 10.1%,11.3 µM,2.94% and 2.65%,11.7 µM,1.96 µM,"Cc1cn(C(C)C)nc1/C=C/c1csc(NC(=O)c2cccn2Cc2ccnc(F)c2)n1 [Compound B83, (E)-1-((2-fluoropyridin-4-yl)methyl)-N-(4-(2-(1-isopropyl-4-methyl-1H-pyrazol-3-yl)vinyl)thiazol-2-yl)-1H-pyrrole-2-carboxamide]",10,36.6
> 25 µM,0.13%,0.329 µM,2.02%,> 25 µM,0.8%,> 25 µM,1.26%,> 25 µM,> 25 µM,"CC(C)c1c(/C=C/c2csc(NC(=O)c3cccn3Cc3ccncc3)n2)ncn1C [Compound B85, (E)-N-(4-(2-(5-isopropyl-1-methyl-1H-imidazol-4-yl)vinyl)thiazol-2-yl)-1-(pyridin-4-ylmethyl)-1H-pyrrole-2-carboxamide]",>76,>75.9
16.7 µM,0.11%,0.104 µM,17%,> 25 µM,12.5%,16.5 µM,0.27%,> 25 µM,23.2 µM,"O=C(Nc1nc(/C=C/c2ncn3c2CCCC3)cs1)c1cccn1Cc1ccnc(F)c1 [Compound B86, (E)-1-((2-fluoropyridin-4-yl)methyl)-N-(4-(2-(5,6,7,8-tetrahydroimidazo[1,5-a]pyridin-1-yl)vinyl)thiazol-2-yl)-1H-pyrrole-2-carboxamide]",>240,>239
